Test results from the NIST ThermoML archive (doi:10.1016/j.jct.2015.07.046).
± gives the expanded uncertainty stated by the source.

Test: activity coefficient (dimensionless); of the first substance listed, at infinite dilution; xn = mol fraction of the nth substance listed
Conditions: 101.3 kPa, Liquid, Chromatography, x1 = 0

| SMILES | activity coefficient (313.15 K) | activity coefficient (323.15 K) | activity coefficient (333.15 K) | activity coefficient (343.15 K) | activity coefficient (353.15 K) | activity coefficient (363.15 K) |
| --- | --- | --- | --- | --- | --- | --- |
| Cc1ccccc1C [1,2-dimethylbenzene] + CCn1cc[n+](C)c1.COP(=O)([O-])OC | 10.2 ± 1.1 | 9.8 ± 1 | 9.59 ± 1 | 9.3 ± 0.98 | 9.14 ± 0.96 | 9 ± 0.95 |
| Cc1ccccc1C [1,2-dimethylbenzene] + COP(=O)([O-])OC.Cn1cc[n+](C)c1 | 12.7 ± 1.3 | 12.5 ± 1.3 | 12.4 ± 1.3 | 12.2 ± 1.3 | 12.1 ± 1.3 | 12 ± 1.3 |
| Cc1cccc(C)c1 [1,3-dimethylbenzene] + CCn1cc[n+](C)c1.COP(=O)([O-])OC | 12.4 ± 1.3 | 11.8 ± 1.2 | 11.2 ± 1.2 | 10.8 ± 1.1 | 10.5 ± 1.1 | 9.99 ± 1.1 |
| Cc1cccc(C)c1 [1,3-dimethylbenzene] + COP(=O)([O-])OC.Cn1cc[n+](C)c1 | 14.6 ± 1.5 | 14.4 ± 1.5 | 14.2 ± 1.5 | 14.2 ± 1.5 | 14.1 ± 1.5 | 13.9 ± 1.5 |
| Cc1ccc(C)cc1 [1,4-dimethylbenzene] + CCn1cc[n+](C)c1.COP(=O)([O-])OC | 12.1 ± 1.3 | 11.5 ± 1.2 | 10.9 ± 1.1 | 10.5 ± 1.1 | 9.99 ± 1.1 | 9.53 ± 1 |
| Cc1ccc(C)cc1 [1,4-dimethylbenzene] + COP(=O)([O-])OC.Cn1cc[n+](C)c1 | 13.8 ± 1.4 | 13.6 ± 1.4 | 13.5 ± 1.4 | 13.4 ± 1.4 | 13.2 ± 1.4 | 13.1 ± 1.4 |
| CC(C)CC(C)(C)C [2,2,4-trimethylpentane] + CCn1cc[n+](C)c1.COP(=O)([O-])OC | 183 ± 19 | 170 ± 18 | 158 ± 17 | 143 ± 15 | 132 ± 14 | 119 ± 13 |
| CC(C)CC(C)(C)C [2,2,4-trimethylpentane] + COP(=O)([O-])OC.Cn1cc[n+](C)c1 | 318 ± 34 | 301 ± 32 | 284 ± 30 | 270 ± 28 | 244 ± 26 | 229 ± 24 |
| c1ccccc1 [benzene] + CCn1cc[n+](C)c1.COP(=O)([O-])OC | 3.51 ± 0.37 | 3.33 ± 0.35 | 3.2 ± 0.34 | 3.12 ± 0.33 | 3.02 ± 0.32 | 2.87 ± 0.3 |
| c1ccccc1 [benzene] + COP(=O)([O-])OC.Cn1cc[n+](C)c1 | 3.64 ± 0.38 | 3.62 ± 0.38 | 3.61 ± 0.38 | 3.59 ± 0.38 | 3.57 ± 0.38 | 3.56 ± 0.37 |
| C1CCCCC1 [cyclohexane] + CCn1cc[n+](C)c1.COP(=O)([O-])OC | 53.9 ± 5.7 | 48.9 ± 5.2 | 44 ± 4.6 | 40.6 ± 4.3 | 37.7 ± 4 | 32.9 ± 3.5 |
| C1CCCCC1 [cyclohexane] + COP(=O)([O-])OC.Cn1cc[n+](C)c1 | 58.4 ± 6.2 | 56 ± 5.9 | 52.6 ± 5.5 | 50.9 ± 5.4 | 48 ± 5.1 | 45.7 ± 4.8 |
| C1=CCCCC1 [cyclohexene] + CCn1cc[n+](C)c1.COP(=O)([O-])OC | 25.4 ± 2.7 | 22.4 ± 2.4 | 20 ± 2.1 | 18.7 ± 2 | 16.9 ± 1.8 | 15.5 ± 1.6 |
| C1=CCCCC1 [cyclohexene] + COP(=O)([O-])OC.Cn1cc[n+](C)c1 | 32.7 ± 3.5 | 31.6 ± 3.3 | 30.7 ± 3.2 | 30.1 ± 3.2 | 29.1 ± 3.1 | 28.3 ± 3 |
| CCCCCCCCCC [decane] + CCn1cc[n+](C)c1.COP(=O)([O-])OC | 430 ± 45 | 388 ± 41 | 354 ± 37 | 316 ± 33 | 294 ± 31 | 245 ± 26 |
| CCCCCCCCCC [decane] + COP(=O)([O-])OC.Cn1cc[n+](C)c1 | 503 ± 53 | 480 ± 51 | 466 ± 49 | 448 ± 47 | 431 ± 46 | 414 ± 44 |

| SMILES | activity coefficient (313.15 K) | activity coefficient (323.15 K) | activity coefficient (333.15 K) | activity coefficient (343.15 K) | activity coefficient (353.15 K) | activity coefficient (363.15 K) |
| --- | --- | --- | --- | --- | --- | --- |
| CCCCCCC [heptane] + CCn1cc[n+](C)c1.COP(=O)([O-])OC | 162 ± 17 | 151 ± 16 | 138 ± 15 | 124 ± 13 | 111 ± 12 | 97.7 ± 10 |
| CCCCCCC [heptane] + COP(=O)([O-])OC.Cn1cc[n+](C)c1 | 297 ± 31 | 279 ± 29 | 258 ± 27 | 243 ± 26 | 231 ± 24 | 216 ± 23 |
| CCCCCC [hexane] + CCn1cc[n+](C)c1.COP(=O)([O-])OC | 139 ± 15 | 122 ± 13 | 107 ± 11 | 87.6 ± 9.2 | 72.2 ± 7.6 | 61.5 ± 6.5 |
| CCCCCC [hexane] + COP(=O)([O-])OC.Cn1cc[n+](C)c1 | 260 ± 27 | 246 ± 26 | 230 ± 24 | 218 ± 23 | 203 ± 21 | 187 ± 20 |
| CC1CCCCC1 [methylcyclohexane] + CCn1cc[n+](C)c1.COP(=O)([O-])OC | 77.7 ± 8.2 | 68.3 ± 7.2 | 61.5 ± 6.5 | 55.9 ± 5.9 | 50.5 ± 5.3 | 45.5 ± 4.8 |
| CC1CCCCC1 [methylcyclohexane] + COP(=O)([O-])OC.Cn1cc[n+](C)c1 | 83.4 ± 8.8 | 80.8 ± 8.5 | 78.3 ± 8.2 | 75.4 ± 7.9 | 73 ± 7.7 | 69.9 ± 7.4 |
| CCCCCCCCC [nonane] + CCn1cc[n+](C)c1.COP(=O)([O-])OC | 272 ± 29 | 243 ± 26 | 225 ± 24 | 207 ± 22 | 197 ± 21 | 182 ± 19 |
| CCCCCCCCC [nonane] + COP(=O)([O-])OC.Cn1cc[n+](C)c1 | 400 ± 42 | 384 ± 40 | 368 ± 39 | 351 ± 37 | 345 ± 36 | 327 ± 34 |
| CCCCCCCC [octane] + CCn1cc[n+](C)c1.COP(=O)([O-])OC | 202 ± 21 | 187 ± 20 | 173 ± 18 | 158 ± 17 | 144 ± 15 | 132 ± 14 |
| CCCCCCCC [octane] + COP(=O)([O-])OC.Cn1cc[n+](C)c1 | 340 ± 36 | 325 ± 34 | 302 ± 32 | 285 ± 30 | 270 ± 28 | 248 ± 26 |
| CCCCC [pentane] + CCn1cc[n+](C)c1.COP(=O)([O-])OC | 125 ± 13 | 106 ± 11 | 88.5 ± 9.3 | 69.8 ± 7.4 | 60.5 ± 6.4 | 52.9 ± 5.6 |
| CCCCC [pentane] + COP(=O)([O-])OC.Cn1cc[n+](C)c1 | 245 ± 26 | 230 ± 24 | 217 ± 23 | 201 ± 21 | 184 ± 19 | 170 ± 18 |
| C=Cc1ccccc1 [styrene] + CCn1cc[n+](C)c1.COP(=O)([O-])OC | 5.45 ± 0.57 | 5.29 ± 0.56 | 5.16 ± 0.54 | 5.01 ± 0.53 | 4.86 ± 0.51 | 4.71 ± 0.49 |
| C=Cc1ccccc1 [styrene] + COP(=O)([O-])OC.Cn1cc[n+](C)c1 |  | 6.62 ± 0.7 | 6.61 ± 0.69 | 6.6 ± 0.69 | 6.58 ± 0.69 | 6.57 ± 0.69 |
| Cc1ccccc1 [toluene] + CCn1cc[n+](C)c1.COP(=O)([O-])OC | 6.45 ± 0.68 | 6.14 ± 0.65 | 5.94 ± 0.62 | 5.73 ± 0.6 | 5.56 ± 0.58 | 5.4 ± 0.57 |
| Cc1ccccc1 [toluene] + COP(=O)([O-])OC.Cn1cc[n+](C)c1 | 7.57 ± 0.8 | 7.54 ± 0.79 | 7.51 ± 0.79 | 7.48 ± 0.79 | 7.47 ± 0.79 | 7.45 ± 0.78 |
